“And” between values parts separate entries of the source, which are not always exact repeats. Identical values can stand only once. Each block holds one compound with its values, some of them ahead of it.
Legend:
[1] = design: method as in Neuzil et al. 2002; settings: humans, oral absorption; ref Neuzil et al. 2002; cited from earlier work
[2] = Brain concentration of enantiomers after oral dosing of mice; assay type: in vivo, male BALB/c mice
Description: (§1) In addition to plasma, skeletal muscle and brain tissue was also taken at less frequent time points (0.5, 2, 6, 24 and 48 h) and prepared for analysis by homogenization of 50 mg of tissue with 100 μL of acetonitrile. The samples were transferred to Waters 96-well plate and the sample was evaporated under nitrogen gas flow. The sample was reconstituted into 150 μl of 50% methanol:water and analysed by LC/MS. […] These samples were then prepared for analysis in the same way as the samples. […] QC samples from racemic-N-Acetyl-Leucine were prepared into concentrations of 40, 400 and 4000 ng/mL, corresponding to 20, 200 and 200 ng/mL concentration of both D- and L-enantiomers, respectively. […] QC samples were then prepared for analysis in the same way as the samples.
(§2) Quantification by HPLC was performed using a Supelco Astec CHIROBIOTIC T chiral HPLC column (2.1 x 150 mm, 5 μm particle size) with a Waters Acquity UPLC + Thermo Q-Exactive hybrid Orbitrap MS, using ESI negative polarity, nitrogen auxiliary gas (450°C), capillary voltage was 2000 and 350°C and controlled with the software Xcalibur 4.1. Samples were injected as a 4-μL volume and eluted with a gradient of buffer A (20 mM ammonium acetate) and buffer B (methanol) with a flow rate of 0.3 mL/min and column oven temperature of 30°C. The gradient was 80% A at 0 min; 20% A at 3.5 min and 80% A at 4.5 min Parallel Reaction Monitoring (PRM) and Full-MS-dd-MS2 were measured at the same time. […] Ions with aforementioned m/z was then collided and leucine fragment (m/z 130 or 134) was used in quantitation. In full-MS-dd-MS2 mode, every ion with intensity over a certain intensity was collided and fragments analyzed.

[3] = Plasma pharmacokinetics of N-acetyl-leucine enantiomers after oral dosing of mice
Description: The animals were weighed on the day prior to dosing. The compound was administered to male BALB/c mice (n = 3 per time point) p.o. (100 mg/kg; 10 mL/kg) by oral gavage. Blood samples were collected into potassium EDTA tubes by venepuncture from the saphenous vein. Within 30 min following the sampling, blood was centrifuged for plasma separation (room temperature; 10 min; 2700 xg). The plasma samples were transferred into plastic tubes, frozen and stored at –20°C.
The plasma samples were prepared for analysis by mixing 50 μL of plasma with 100 μL of acetonitrile and mixed. In addition to plasma, skeletal muscle and brain tissue was also taken at less frequent time points (0.5, 2, 6, 24 and 48 h) and prepared for analysis by homogenization of 50 mg of tissue with 100 μL of acetonitrile. The samples were transferred to Waters 96-well plate and the sample was evaporated under nitrogen gas flow. The sample was reconstituted into 150 μl of 50% methanol:water and analysed by LC/MS. Standard plasma samples were prepared by spiking the injection solution with concentrations from 1 to 10 000 ng/mL by using one volume of spiking solution and nine volumes of injection solution. These samples were then prepared for analysis in the same way as the samples. […] QC samples from racemic-N-Acetyl-Leucine were prepared into concentrations of 40, 400 and 4000 ng/mL, corresponding to […] concentration of both D- and L-enantiomers, respectively. […] QC samples were then prepared for analysis in the same way as the samples.
Quantification by HPLC was performed using a Supelco Astec CHIROBIOTIC T chiral HPLC column (2.1 x 150 mm, 5 μm particle size) with a Waters Acquity UPLC + Thermo Q-Exactive hybrid Orbitrap MS, using ESI negative polarity, nitrogen auxiliary gas (450°C), capillary voltage was […] and controlled with the software Xcalibur 4.1. Samples were injected as a 4-μL volume and eluted with a gradient of buffer A (20 mM ammonium acetate) and buffer B (methanol) with a flow rate of 0.3 mL/min and column oven temperature of 30°C. The gradient was 80% A at 0 min; 20% A at 3.5 min and 80% A at 4.5 min Parallel Reaction Monitoring (PRM) and Full-MS-dd-MS2 were measured at the same time. […] Ions with aforementioned m/z was then collided and leucine fragment (m/z 130 or 134) was used in quantitation. In full-MS-dd-MS2 mode, every ion with intensity over a certain intensity was collided and fragments analyzed.
Plasma pharmacokinetic parameters of the N-acetyl-leucine enantiomers were calculated using Phoenix 64 (Build 6.4.0.768) WinNonlin (version 6.4) software, using non-compartmental method with sparse sampling. Nominal doses were used for all animals. The terminal phase half-life (T1/2), the time for 50% of the plasma concentration to decrease after some point of elimination, was calculated by least-squares regression analysis of the terminal linear part of the log concentration–time curve using the relationship 0.693/ke. The area under the plasma concentration–time curve (AUC), an estimation of plasma drug exposure over time, was determined with the linear trapezoidal rule for increasing values and log trapezoidal rule for decreasing values up to the last measurable concentration (AUC0-last). The first order elimination rate constant ke was calculated as the slope (minimum 3 points) from the terminal log plasma concentration time curve. The maximum concentration (Cmax) and the time taken to achieve the peak concentration (Tmax) after oral dose were obtained directly from the plasma concentration data without interpolation. The theoretical background and interpretation of the pharmacokinetic data was based on. Where appropriate, data are expressed as the mean ± standard error of the mean. Means were statistically analysed by either pre-planned t tests or a one-sample t test comparing the measured value with the expected value.

[4] = Skeletal muscle concentration of enantiomers after oral dosing of mice; assay type: in vivo, male BALB/c mice; settings: individual mice
Description: as §1, §2

[5] = 0.15 h after p.o. N-Acetyl-L-Leucine 100 mg/kg, individual mice
[6] = 0.30 h after p.o. N-Acetyl-L-Leucine 100 mg/kg, individual mice
[7] = 1.00 h after p.o. N-Acetyl-L-Leucine 100 mg/kg, individual mice
[8] = 2.00 h after p.o. N-Acetyl-L-Leucine 100 mg/kg, individual mice
[9] = 4.00 h after p.o. N-Acetyl-L-Leucine 100 mg/kg, individual mice
[10] = 6.00 h after p.o. N-Acetyl-L-Leucine 100 mg/kg, individual mice
[11] = 8.00 h after p.o. N-Acetyl-L-Leucine 100 mg/kg, individual mice
[12] = 24.0 h after p.o. N-Acetyl-L-Leucine 100 mg/kg, individual mice
[13] = 32.0 h after p.o. N-Acetyl-L-Leucine 100 mg/kg, individual mice
[14] = 48.0 h after p.o. N-Acetyl-L-Leucine 100 mg/kg, individual mice
[15] = male, BALB/c, mouse, in vivo, po, 100 mg/kg
[16] = male, BALB/c, mouse, plasma, oral, 100 mg/kg, concentration in plasma, 0.30 h after p.o. N-Acetyl-L-Leucine 100 mg/kg, individual mice
[17] = male, BALB/c, mouse, plasma, oral, 100 mg/kg, concentration in plasma, 6.00 h after p.o. N-Acetyl-L-Leucine 100 mg/kg, individual mice
[18] = male, BALB/c, mouse, plasma, po, 100 mg/kg
[19] = plasma, after oral N-Acetyl-L-Leucine, nominal dose 100 mg/kg
[20] = plasma, after oral N-Acetyl-L-Leucine, nominal dose 100 mg/kg, 100 mg/kg
[21] = plasma, after oral N-Acetyl-L-Leucine, nominal dose 100 mg/kg, listed as D-enantiomer, 100 mg/kg
[22] = 0.30 h after p.o. N-Acetyl-DL-Leucine 100 mg/kg
[23] = 2.00 h after p.o. N-Acetyl-DL-Leucine 100 mg/kg
[24] = male, BALB/c, mouse, skeletal muscle, oral, 100 mg/kg, 0.30 h after p.o. N-Acetyl-DL-Leucine 100 mg/kg
[25] = plasma, after oral N-Acetyl-L-Leucine, nominal dose 100 mg/kg, listed as L-enantiomer, 100 mg/kg

Structure (SMILES): CC(=O)NC(CC(C)C)C(=O)O (racemic) [N-Acetyl-DL-Leucine, N-acetyl-DL-leucine]
- elimination half-life [1]: 60 to 108 min

- concentration in brain ([2]; 0.30 h after p.o. N-Acetyl-DL-Leucine 100 mg/kg, individual mice): 357 ng/mL and 491 ng/mL and 888 ng/mL
- concentration in brain ([2]; 2.00 h after p.o. N-Acetyl-DL-Leucine 100 mg/kg, individual mice): <LoQ
- concentration at 2 h ([2]; male, BALB/c, mouse, brain, oral, 100 mg/kg, 2.00 h after p.o. N-Acetyl-DL-Leucine 100 mg/kg, individual mice): 117 ng/mL
- concentration in plasma [3, 5]: 391 ng/mL and 336 ng/mL
- concentration in plasma [3, 6]: 463 ng/mL and 388 ng/mL
- concentration in plasma [3, 7]: 116 ng/mL and 144 ng/mL and 248 ng/mL
- concentration in plasma [3, 8]: <LoQ and 45.6 ng/ml
- concentration in plasma [3, 9]: <LoQ
- concentration in plasma [3, 10]: <LoQ and 21.4 ng/ml
- concentration in plasma [3, 11]: 15.0 ng/ml and <LoQ
- concentration in plasma [3, 12]: <LoQ
- concentration in plasma [3, 13]: <LoQ
- concentration in plasma [3, 14]: <LoQ
- actual dose proportionality for AUC ([3]; male, BALB/c, mouse, in vivo): 101 fold
- actual dose proportionality for Cmax ([3]; male, BALB/c, mouse, in vivo): 197 fold
- Clast [3, 15]: 247 ng/mL
- Cmax [3, 15]: 86100 ng/mL
- Tmax [3, 15]: < 15 min
- half-life [3, 15]: 18.6 min
- k el [3, 15]: 0.000611 s⁻¹
- ke [3, 15]: 2.2
- concentration at 0.15 h ([3]; male, BALB/c, mouse, plasma, oral, 100 mg/kg, concentration in plasma, 0.15 h after p.o. N-Acetyl-L-Leucine 100 mg/kg, individual mice): 582 ng/mL
- concentration at 0.3 h [3, 16]: 392 ng/mL
- concentration at 2 h ([3]; male, BALB/c, mouse, plasma, oral, 100 mg/kg, concentration in plasma, 2.00 h after p.o. N-Acetyl-L-Leucine 100 mg/kg, individual mice): 33.4 ng/mL
- concentration at 6 h [3, 17]: 23.3 ng/mL
- concentration at 8 h ([3]; male, BALB/c, mouse, plasma, oral, 100 mg/kg, concentration in plasma, 8.00 h after p.o. N-Acetyl-L-Leucine 100 mg/kg, individual mice): 17.3 ng/mL
- Cmax [3, 18]: 436 ng/mL
- Tmax [3, 18]: < 15 min
- half-life [3, 18]: 15 min
- k el [3, 18]: 0.000472 s⁻¹
- AUC0-last [3, 19]: 573 h x ng/mL
- ke [3, 19]: 1.7
- Clast [3, 20]: 16.2 ng/mL
- Tlast [3, 20]: 8.00 h
- Clast [3, 21]: 16 ng/mL
- Tlast [3, 21]: 8 h
- concentration in muscle [4, 22]: 4370 ng/mL and 3590 ng/mL
- concentration in muscle ([4]; 0.30 h after p.o. N-Acetyl-L-Leucine 100 mg/kg): 1110 ng/mL and 1520 ng/mL
- concentration in muscle [4, 23]: 335 ng/mL and 396 ng/mL and 829 ng/mL
- concentration in muscle ([4]; 2.00 h after p.o. N-Acetyl-L-Leucine 100 mg/kg): 119 ng/mL and 109 ng/mL
- concentration at 0.3 h [4, 24]: 2860 ng/mL
- concentration at 0.3 h ([4]; male, BALB/c, mouse, skeletal muscle, oral, 100 mg/kg, 0.30 h after p.o. N-Acetyl-L-Leucine 100 mg/kg): 1090 ng/mL
- concentration at 2 h ([4]; male, BALB/c, mouse, skeletal muscle, oral, 100 mg/kg, 2.00 h after p.o. N-Acetyl-L-Leucine 100 mg/kg): 112 ng/mL
Structure (SMILES): CC(=O)N[C@H](CC(C)C)C(=O)O [N-Acetyl-D-Leucine, N-acetyl-D-leucine]

- detection in brain ([2]; following oral dosing with the racemate, Fig 6B): not detectable at any time point
- concentration in plasma [3, 6]: 7520 ng/mL and 10500 ng/mL
- concentration in plasma [3, 7]: 1590 ng/mL and 4280 ng/mL and 5300 ng/mL
- concentration in plasma [3, 8]: 73 ng/mL and 663 ng/mL and 502 ng/mL
- concentration in plasma [3, 9]: 131 ng/mL and 139 ng/mL and 304 ng/mL
- concentration in plasma [3, 10]: <LoQ and 114 ng/ml
- concentration in plasma [3, 11]: <LoQ
- concentration in plasma [3, 12]: <LoQ
- concentration in plasma [3, 13]: <LoQ
- concentration in plasma [3, 14]: <LoQ
- actual dose proportionality for AUC ([3]; male, BALB/c, mouse, in vivo): 4.6 fold
- actual dose proportionality for Cmax ([3]; male, BALB/c, mouse, in vivo): 4.9 fold
- Clast [3, 15]: 623 ng/mL
- Cmax [3, 15]: 3410 ng/mL
- Tmax [3, 15]: < 15 min
- half-life [3, 15]: 24 min
- k el [3, 15]: 0.000778 s⁻¹
- ke [3, 15]: 2.8
- concentration at 0.3 h [3, 16]: 7510 ng/mL
- concentration at 6 h [3, 17]: 222 ng/mL
- Cmax [3, 18]: 16800 ng/mL
- Tmax [3, 18]: < 15 min
- half-life [3, 18]: 17.4 min
- k el [3, 18]: 0.000667 s⁻¹
- Clast [3, 19]: 168 ng/mL
- ke [3, 19]: 2.4
- AUC0-last [3, 20]: 11 400 h x ng/mL
- Tlast [3, 20]: 6.00 h
- AUC0-last [3, 25]: 11400 h x ng/mL
- Tlast [3, 25]: 6 h
- concentration in muscle [4, 22]: 605 ng/mL and 566 ng/mL
- concentration in muscle [4, 23]: 364 ng/mL and 154 ng/mL and 193 ng/mL
- concentration in muscle ([4]; 6.00 h after p.o. N-Acetyl-DL-Leucine 100 mg/kg): 159 ng/mL and 189 ng/mL
- concentration in muscle ([4]; 24.0 h after p.o. N-Acetyl-DL-Leucine 100 mg/kg): 195 ng/mL and 153 ng/mL
- concentration in muscle ([4]; 48.0 h after p.o. N-Acetyl-DL-Leucine 100 mg/kg): 102 ng/mL
- concentration at 0.3 h [4, 24]: 469 ng/mL
- concentration at 6 h ([4]; male, BALB/c, mouse, skeletal muscle, oral, 100 mg/kg, 6.00 h after p.o. N-Acetyl-DL-Leucine 100 mg/kg): 108 ng/mL
- concentration at 24 h ([4]; male, BALB/c, mouse, skeletal muscle, oral, 100 mg/kg, 24.0 h after p.o. N-Acetyl-DL-Leucine 100 mg/kg): 136 ng/mL
- concentration at 48 h ([4]; male, BALB/c, mouse, skeletal muscle, oral, 100 mg/kg, 48.0 h after p.o. N-Acetyl-DL-Leucine 100 mg/kg): 124 ng/mL
Structure (SMILES): CC(=O)N[C@@H](CC(C)C)C(=O)O [N-Acetyl-L-Leucine, N-acetyl-L-leucine]
- concentration in plasma [3, 5]: 9090 ng/mL and 12400 ng/mL and 28900 ng/mL

— publication PMC7046201, “Unexpected differences in the pharmacokinetics of N-acetyl-DL-leucine enantiomers after oral dosing and their clinical relevance” (PLoS ONE, 2020)
